Reference: patent US20240398773A1, “COMPOSITIONS COMPRISING OTESECONAZOLE” (Mycovia Pharmaceuticals, Inc., priority 2021, published 2024)
Like-named read-outs stand apart in the source and are kept apart here.

Assays:
[1] = Physicochemical and biological properties of drug substance
Excerpt: As a BCS Class IIc drug, it may be anticipated that dissolution may be dependent upon the drug substance particle size. (Tsume et al., 2014). Micronization of the drug substance provided a means to deliver drug substance with a small and consistent particle size. A discriminatory dissolution method was developed to show the effect of drug substance particle size on dissolution to help ensure product quality. […] A high shear wet granulation process was developed to densify the product, and improve its flow to enable manufacturing, while maintaining good dissolution from the formulation.

[2] = Study CL-003 in subjects with tinea pedis, plasma PK; assay type: in vivo, human; conditions: for AUC(0-t): read-out: AUC0−8
Experimental: Oteseconazole was slowly absorbed, with median time to peak plasma concentration values that ranged from 5.0 to 6.0 hours after dosing on Days 1 and 14 for all treatments. […] The Cmax values on Day 1 were similar between the mid- and high-dose treatments, since the first dose on that day was 600 mg for each treatment.

Study CL-004 plasma PK = assay type: in vivo, human; conditions: for concentration at 24 h / concentration at 168 day / half-life / Tmax / Cmax / AUC(0-t): human, plasma; for concentration at 24 h: read-out: predicted minimum concentration (Cmin) at 24 hours after the final Day 3 dose; for half-life: read-out: median t1/2 (converted); for Tmax: read-out: median Tmax; for AUC(0-t): read-out: AUC0-8
Experimental: The ty, values were estimated on the basis of blood sampling that was carried out between approximately 7 and 168 days after administration of the first dose. […] The oteseconazole concentrations on Day 168 remained measurable (127, 409, and 1300 ng/mL for the 300 mg QD, 600 mg QD, and 600 mg BID treatment groups, respectively) and remained at or above therapeutic concentrations for the 600 mg QD and 600 mg BID treatment groups.
Based on the calculated Cmin values, only about 50% of the target was met for the 300 mg QD and 600 mg QD treatment groups, with the 600 mg BID treatment group reaching the target anticipated for the 600 mg QD group.

recurrent VVC episode = test: Study CL-006 culture-verified recurrent VVC episodes; assay type: in vivo, human; conditions: 150 mg, 3 months dose group (150 mg QD 7 days, then 150 mg QW 11 weeks)
Excerpt: The dosing regimen yielded oteseconazole plasma concentrations that provided marked efficacy across all dose groups, with no differences in the extent of efficacy noted.

[3] = Study CL-007 DDI and PKE cohorts, plasma PK; assay type: in vivo; set-up: AUC(0-t) / AUC(0-inf): concentration or dose not given beside the values; conditions: human; for AUC(0-t): read-out: AUC0-24
Experimental: The median Tmax was 4.0 hours on Day 3 and 6.0 hours on Day 16. […] The increase in oteseconazole concentrations after 14 days of daily dosing was expected based on the long half-life of oteseconazole and are a consequence of accumulation and not of concomitant administration of midazolam.
The geometric mean AUC0-24 was 26120 h*ng/ml and the geometric mean AUC0-∞ was 57290 h*ng/mL. These values were consistent with the oteseconazole plasma PK parameters calculated on Day 3 in the DDI cohort.

Study CL-017 plasma PK = assay type: in vivo, human; conditions: for Tmax: Median
Experimental: Oteseconazole mean (SD) plasma concentration during the intense PK sampling period on Day 1 peaked at 4 hours postdose (1425.8 [672.05] μg/L) and decreased slightly by 8 hours postdose (1301.06 [782.76] μg/L). On Day 2, mean (SD) oteseconazole plasma concentrations were 697.7 (264.40) μg/L at predose, then increased to 1895.0 (640.00) μg/L at 4 hours postdose, and decreased to 1555.6 (392.68) μg/L by 8 hours postdose (FIG. 6).
Over the period of Day 14 to Week 50, oteseconazole plasma concentrations were measured at Day 14, Week 14 (end of dosing), and Week 50 (end of follow-up period). Oteseconazole mean (SD) plasma concentration increased from 1396.9 (709.00) μg/L at Day 14 to 2679.3 (1318.94) μg/L at Week 14 before decreasing to 873.4 (534.49) μg/L at Week 50 (FIG. 7).
Median Tmax occurred at 4.00 hours on Day 2; however, Tmax occurred in a narrower range (2.00 to 8.00 hours) compared with that observed on Day 1. The AUC0-8 was 7570 h*μg/L and 11700 h*μg/L, for Day 1 and Day 2, respectively (Table 17).

[4] = human, plasma, High Dose 1200 mg/300 mg, Day 1
[5] = human, plasma, High Dose 1200 mg/300 mg, Day 14
[6] = human, plasma, Low Dose 200 mg/50 mg, Day 1
[7] = human, plasma, Low Dose 200 mg/50 mg, Day 14
[8] = human, plasma, Mid Dose 600 mg/150 mg, Day 1
[9] = human, plasma, Mid Dose 600 mg/150 mg, Day 14
[10] = 300 mg, 300 mg QD treatment group
[11] = 600 mg, 600 mg BID treatment group
[12] = 600 mg, 600 mg QD treatment group
[13] = DDI Cohort, Day 3, geometric mean
[14] = DDI Cohort, Day 16, geometric mean
[15] = PKE Cohort, Day 1, geometric mean

O[C@@](Cn1cnnn1)(c1ccc(F)cc1F)C(F)(F)c1ccc(-c2ccc(OCC(F)(F)F)cc2)cn1 [Oteseconazole, oteseconazole]
BCS class [1]: BCS Class IIc | hygroscopicity [1]: slightly hygroscopic | stability to light [1]: stable in the presence of light | solubility ([1]; BCS classification): low solubility | chemical stability ([1]; alone and formulated into a drug product): excellent chemical stability | bulk density ([1]; micronized drug substance): approximately 0.2 g/mL | ionization ([1]; pH range of the gastrointestinal tract): unionized throughout the pH range of the gastrointestinal tract | increase in Cmax, high-dose versus mid-dose treatment ([2]; Day 14, 2-fold dose difference): 15% | increase in concentration (Cmax), mid versus low dose ([2]; Days 1 and 14, 3-fold increase in dose): 2 fold | Cmax achieved as share of target ([2]; high-dose group): about 25% | Cmax [2, 4]: 757 ng/mL | Tmax [2, 4]: 5 h | AUC(0-t) [2, 4]: 3.54 µg·h/mL | Cmax [2, 5]: 2520 ng/mL | Tmax [2, 5]: 5.02 h | AUC(0-t) [2, 5]: 17.6 µg·h/mL | Cmax [2, 6]: 366 ng/mL | Tmax [2, 6]: 6 h | AUC(0-t) [2, 6]: 1.68 µg·h/mL | Cmax [2, 7]: 1090 ng/mL | Tmax [2, 7]: 5 h | AUC(0-t) [2, 7]: 7.95 µg·h/mL | Cmax [2, 8]: 679 ng/mL | Tmax [2, 8]: 6 h | AUC(0-t) [2, 8]: 3.32 µg·h/mL | Cmax [2, 9]: 2180 ng/mL | Tmax [2, 9]: 5 h | AUC(0-t) [2, 9]: 16.1 µg·h/mL | half-life ([2]; human, plasma, blood sampling for 168 days (4032 hours), read-out: terminal phase half-life, range of median values): 86.7 to 172 days | Cmax achieved as share of target ([2]; mid-dose group): about 50% | share of target Cmin met (Study CL-004 plasma PK; 300 mg QD and 600 mg QD treatment groups): about 50% | concentration at 24 h (Study CL-004 plasma PK; 300 mg, 300 mg QD dose group): 705 ng/mL | concentration at 168 day (Study CL-004 plasma PK; [10]): 127 ng/mL | half-life (Study CL-004 plasma PK; [10]): 75.9 days | concentration at 24 h (Study CL-004 plasma PK; 600 mg, 600 mg BID dose group): 2830 ng/mL | concentration at 168 day (Study CL-004 plasma PK; [11]): 1300 ng/mL | half-life (Study CL-004 plasma PK; [11]): 160 days | concentration at 24 h (Study CL-004 plasma PK; 600 mg, 600 mg QD dose group): 1000 ng/mL | concentration at 168 day (Study CL-004 plasma PK; [12]): 409 ng/mL | half-life (Study CL-004 plasma PK; [12]): 133 days | Tmax (Study CL-004 plasma PK; 300 mg dose): 4 h | Tmax (Study CL-004 plasma PK; 600 mg dose): 5.5 h | Cmax (Study CL-004 plasma PK; Day 1, 300 mg dose): 407 ng/mL | AUC(0-t) (Study CL-004 plasma PK; Day 1, 300 mg dose): 1.87 µg·h/mL | Cmax (Study CL-004 plasma PK; Day 1, 600 mg dose): 968 ng/mL | AUC(0-t) (Study CL-004 plasma PK; Day 1, 600 mg dose): 4.23 µg·h/mL | subjects with a culture-verified recurrent VVC episode by Week 48 (recurrent VVC episode): 4.8% | AUC(0-inf) [3, 13]: 49.4 µg·h/mL | Cmax [3, 13]: 1910 ng/mL | AUC(0-t) [3, 13]: 24.6 µg·h/mL | Tmax ([3]; DDI Cohort, Day 3, median): 4 h | AUC(0-inf) [3, 14]: 4880 µg·h/mL | Cmax [3, 14]: 11600 ng/mL | AUC(0-t) [3, 14]: 243 µg·h/mL | Tmax ([3]; DDI Cohort, Day 16, median): 6 h | AUC(0-inf) [3, 15]: 57.3 µg·h/mL | Cmax [3, 15]: 1900 ng/mL | AUC(0-t) [3, 15]: 26.1 µg·h/mL | Tmax ([3]; PKE Cohort, Day 1, median): 6 h | Clast (Study CL-017 plasma PK; 3 × 150 mg (450 mg), Day 2, Geometric Mean): 1510 ng/mL | AUC(0-t) (Study CL-017 plasma PK; human, plasma, oral, 450 mg, 3 × 150 mg (450 mg), Day 2, Geometric Mean, read-out: AUC0-8): 11.7 µg·h/mL | concentration at 4 h (Study CL-017 plasma PK; human, plasma, oral, 450 mg, Day 2, 4 hours postdose, read-out: mean (SD) plasma concentration): 1900 ng/mL | concentration at 8 h (Study CL-017 plasma PK; human, plasma, oral, 450 mg, Day 2, 8 hours postdose, read-out: mean (SD) plasma concentration): 1560 ng/mL | AUC(0-t) (Study CL-017 plasma PK; human, plasma, oral, 450 mg, Day 2, as given in text, read-out: AUC0-8): 11.7 µg·h/mL | AUC(0-t) (Study CL-017 plasma PK; human, plasma, oral, 600 mg, 600 mg dose on Day 1, as given in text, read-out: AUC0-24): 20.6 µg·h/mL | AUC(0-t) (Study CL-017 plasma PK; human, plasma, oral, 600 mg, 4 × 150 mg (600 mg), Day 1, Geometric Mean, N 8, read-out: AUC0-24): 20.6 µg·h/mL | AUC(0-t) (Study CL-017 plasma PK; human, plasma, oral, 600 mg, 4 × 150 mg (600 mg), Day 1, Geometric Mean, read-out: AUC0-8): 7.57 µg·h/mL | concentration at 24 h (Study CL-017 plasma PK; human, plasma, oral, 600 mg, 4 × 150 mg (600 mg), Day 1, Geometric Mean, read-out: Clast): 651 ng/mL | concentration at 24 h (Study CL-017 plasma PK; human, plasma, oral, 600 mg, 24 hours after 600 mg Day 1 dose (predose Day 2), read-out: plasma concentrations, range across subjects): 354 to 1150 ng/mL | concentration at 4 h (Study CL-017 plasma PK; human, plasma, oral, 600 mg, Day 1, 4 hours postdose, read-out: mean (SD) plasma concentration): 1430 ng/mL | concentration at 8 h (Study CL-017 plasma PK; human, plasma, oral, 600 mg, Day 1, 8 hours postdose, read-out: mean (SD) plasma concentration): 1300 ng/mL | AUC(0-t) (Study CL-017 plasma PK; human, plasma, oral, 600 mg, Day 1, as given in text, read-out: AUC0-8): 7.57 µg·h/mL | concentration at 24 h (Study CL-017 plasma PK; human, plasma, oral, 600 mg, Day 2, predose, read-out: mean (SD) plasma concentration): 698 ng/mL | concentration at 14 day (Study CL-017 plasma PK; human, plasma, oral, Day 14, read-out: mean (SD) plasma concentration): 1400 ng/mL | concentration at 14 week (Study CL-017 plasma PK; human, plasma, oral, Week 14 (end of dosing), read-out: mean (SD) plasma concentration): 2680 ng/mL | concentration at 50 week (Study CL-017 plasma PK; human, plasma, oral, Week 50 (end of follow-up period), read-out: mean (SD) plasma concentration): 873 ng/mL | Cmax (Study CL-017 plasma PK; human, plasma, oral, 3 × 150 mg (450 mg), Day 2, Geometric Mean): 2010 ng/mL | Tmax (Study CL-017 plasma PK; human, plasma, oral, 3 × 150 mg (450 mg), Day 2): 4 h | Cmax (Study CL-017 plasma PK; human, plasma, oral, 4 × 150 mg (600 mg), Day 1, Geometric Mean): 1620 ng/mL | Tmax (Study CL-017 plasma PK; human, plasma, oral, 4 × 150 mg (600 mg), Day 1): 4.01 h
